Measured values published in US20260028354A1, “TETRAHYDRONAPHTHALENE DERIVATIVES AS ESTROGEN RECEPTOR DEGRADERS” (REGENT OF THE UNIVERSITY OF MICHIGAN, priority 2022, published 2026).
Where a name gives a salt, the structure may show the parent alone. Read-outs that look alike come from different tables or passages of the source.

Tests used:
Assay type in all cases: cell-based
[1] = Western blot analysis for "B" compounds; conditions: read-out: Traditional Western Degradation Potency (DC50)
Experimental: Western Blot Analysis. Western blot analysis was performed essentially as described previously. The cells treated with indicated compounds were lysed in Radioimmunoprecipitation Assay Protein Lysis and Extraction Buffer (25 mmol/I. Tris.HCl, pH 7.6, 150 mmol/L, NaCl, 1% Nonidet P-40, 1% sodium deoxycholate, and 0.1% sodium dodecyl sulfate) containing proteinase inhibitor cocktail (Roche Diagnostics, Mannheim, Germany). Equal amounts of total protein were electrophoresed through 10% SDS-polyacrylamide gels after determination of protein concentration by BCA assay (Fisher Scientific, Pittsburgh, PA), The separated protein bands were transferred onto PVDF membranes (GE Healthcare Life Sciences, Marlborough, MA) and blotted against different antibodies, as indicated. The blots were scanned, and the band intensities were quantified using GelQuant.NET software provided by biochemlabsolutions.com. The relative mean intensity of target proteins was expressed after normalization to the intensity of glyceraldehyde-3-phosphate dehydrogenase bands.

ER in T47D cells = ER in T47D cells (Homo sapiens (Human), UniProt P03372); assay: In-cell Western (ICW) ER degradation assay in T47D cells; conditions: for DC50: ER degradation
Source text: (§1) In-cell Western (ICW) assays in MCF-7 and T47D cell lines.
(§2) Day 3: After 16 hrs of compounds treatment, cells were fixed by 4% PFA and permeabilized with elution buffer (0.1% Triton X-100 in 1% PBS Solution). Subsequently, cells were blocked with Intercept (PBS) Blocking Buffer (Li-COR, Odyssey Blocking Buffer), and were stained with ER (1:500, Cell signaling) primary antibody for overnight at cold room.
(§3) Day 4: Remove the buffer, add IRDye 800CW Goat anti-Rabbit IgG Secondary Antibody (1:2000) and CellTag 700 Stain (1:500) in Intercept (PBS) Blocking Buffer. Finally, cell plate is placed in incubator to dry. Image and signal were captured on Odyssey® DLx Imaging System.

ER in MCF-7 cells = ER in MCF-7 cells (Homo sapiens (Human), UniProt P03372); assay: In-cell Western (ICW) ER degradation assay in MCF-7 cells; conditions: for DC50: MCF-7, ER degradation, read-out: MCF7 DC50
Source text: as §1, §2, §3

[2] = read-out: T47D Dmax, T47D, maximal ER degradation, 16 hrs treatment
[3] = MCF7, read-out: MCF7 Dmax, MCF-7, maximal ER degradation, 16 hrs treatment
[4] = maximal ER degradation, 16 hrs treatment
[5] = maximal ER degradation, 16 hrs treatment, read-out: T47D Dmax
[6] = MCF7, MCF-7, maximal ER degradation, 16 hrs treatment, read-out: MCF7 Dmax

Sequence of ER in MCF-7 cells (P03372 whole entry): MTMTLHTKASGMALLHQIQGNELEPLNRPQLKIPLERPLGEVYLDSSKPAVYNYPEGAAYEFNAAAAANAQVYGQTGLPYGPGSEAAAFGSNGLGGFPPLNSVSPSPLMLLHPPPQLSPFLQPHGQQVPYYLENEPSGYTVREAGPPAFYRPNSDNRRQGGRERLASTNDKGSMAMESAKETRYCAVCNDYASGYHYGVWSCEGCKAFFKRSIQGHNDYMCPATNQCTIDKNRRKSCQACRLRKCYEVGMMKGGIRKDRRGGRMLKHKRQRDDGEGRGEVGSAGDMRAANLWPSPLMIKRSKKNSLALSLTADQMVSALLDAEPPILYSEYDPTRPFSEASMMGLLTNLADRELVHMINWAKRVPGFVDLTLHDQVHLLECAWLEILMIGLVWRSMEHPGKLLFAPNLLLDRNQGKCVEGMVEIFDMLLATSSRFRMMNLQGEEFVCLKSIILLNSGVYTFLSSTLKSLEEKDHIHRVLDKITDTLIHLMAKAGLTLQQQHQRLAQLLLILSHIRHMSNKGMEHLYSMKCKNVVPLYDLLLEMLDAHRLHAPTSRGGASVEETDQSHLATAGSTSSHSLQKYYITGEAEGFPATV
Sequence of ER in T47D cells (P03372 whole entry): as above

Row | Molecule | DC50 [1] | DC50 (ER in T47D cells; 16 hrs treatment) | Dmax (ER in T47D cells; [2]) | Dmax (ER in MCF-7 cells; [3]) | DC50 (ER in MCF-7 cells; 16 hrs treatment) | T47D Dmax (ER in T47D cells; [4]) | MCF7 Dmax (ER in MCF-7 cells; MCF-7, maximal ER degradation, 16 hrs treatment) | Dmax (ER in T47D cells; [5]) | Dmax (ER in MCF-7 cells; [6])
1 | O=C1CCC(N2Cc3cc4c(cc3C2=O)NC(=O)[C@@H]2CN(CC3CCN(c5ccc([C@@H]6c7ccc(O)cc7CC[C@@H]6c6ccccc6)cc5)CC3)CCN42)C(=O)N1 (stereo partly drawn) [Compound B134, (4aS)-9-(2,6-dioxopiperidin-3-yl)-3-((1-(4-((1R,2S)-6-hydroxy-2-phenyl-1,2,3,4-tetrahydronaphthalen-1-yl)phenyl)piperidin-4-yl)methyl)-2,3,4,4a,9,10-hexahydropyrazino[1,2-a]pyrrolo[3,4-g]quinoxaline-5,8(1H,6H)-dione] | > 100 nM | – | – | – | – | – | – | – | –
2 | O=C1CCC(N2Cc3cc4c(cc3C2=O)CN(C(=O)CN2CCC3(CC2)CCN(c2ccc([C@@H]5c6ccc(O)cc6CC[C@@H]5c5ccccc5)cc2)CC3)C4)C(=O)N1 (stereo partly drawn) [Compound B105, 3-(6-(2-(9-(4-((1R,2S)-6-hydroxy-2-phenyl-1,2,3,4-tetrahydronaphthalen-1-yl)phenyl)-3,9-diazaspiro[5.5]undecan-3-yl)acetyl)-1-oxo-3,5,6,7-tetrahydropyrrolo[3,4-f]isoindol-2(1H)-yl)piperidine-2,6-dione] | < 10 nM | – | – | – | – | – | – | – | –
3 | 3-(6-((1R,4r)-4-(3-((4-((1R,2S)-6-hydroxy-2-phenyl-1,2,3,4- tetrahydronaphthalen-1-yl)phenyl)amino)azetidin-1- yl)cyclohexane-1-carbonyl)-1-oxo-3,5,6,7- tetrahydropyrrolo[3,4-f]isoindol-2(1H)-yl)piperidine-2,6-dione [Compound B115] | > 100 nM | – | – | – | – | – | – | – | –
4 | O=C1CC[C@H](N2Cc3cc4c(cc3C2=O)OCC42CCN(C[C@H]3COC4(CCN(c5ccc([C@H]6c7ccc(O)cc7CC[C@H]6c6ccccc6)cc5)CC4)C3)CC2)C(=O)N1 [Compound A22, (S)-3-(1′-(((S)-8-(4-((1S,2R)-6-hydroxy-2-phenyl-1,2,3,4-tetrahydronaphthalen-1-yl)-phenyl)-1-oxa-8-azaspiro[4.5]decan-3-yl)methyl)-7-oxo-5,7-dihydro-2H,6H-spiro[furo[2,3-f]isoindolc-3,4′-pipcridin]-6-yl)pipcridinc-2,6-dione] | – | < 1 nM | 25 to 50% | 50 to 75% | < 1 nM | – | – | – | –
5 | O=C1CC[C@H](N2Cc3cc4c(cc3C2=O)OCC42CCN(C[C@@H]3COC4(CCN(c5ccc([C@@H]6c7ccc(O)cc7CC[C@@H]6c6ccccc6)cc5)CC4)C3)CC2)C(=O)N1 [Compound A26, (3S)-3-(1′-((8-(4-((1R,2S)-6-hydroxy-2-phenyl-1,2,3,4-tetrahydronaphthalen-1-yl)-phenyl)-1-oxa-8-azaspiro[4.5]decan-3-yl)methyl)-7-oxo-5,7-dihydro-2H,6H-spiro[furo[2,3-f]isoindole-3,4′-piperidin]-6-yl)piperidine-2,6-dione] | – | 10 to 100 nM | – | – | 10 to 100 nM | C (“C”: 25-50%) | C (“C”: 25-50%) | – | –
6 | COc1cc(N2CCC3(CC2)CC(CN2CCC(c4ccc(N[C@H]5CCC(=O)NC5=O)cc4)CC2)C3)ccc1[C@@H]1c2ccc(O)cc2CC[C@@H]1c1ccccc1 (single isomer, unassigned) [Compound A96] | – | < 1 nM | – | – | < 1 nM | – | – | 50 to 75% | 50 to 75%
7 | O=C1CC[C@@H](N2Cc3cc4c(cc3C2=O)OC[C@H]2CN(CC3COC5(C3)CN(c3ccc([C@H]6c7ccc(O)cc7CC[C@H]6c6ccccc6)cc3)C5)CCN42)C(=O)N1 (stereo in doubt) [Compound A8, (3R)-3-((4aR)-3-((2-(4-((1S,2R)-6-hydroxy-2-phenyl-1,2,3,4-tetrahydronaphthalen-1-yl)phenyl)-5-oxa-2-azaspiro[3,4]octan-7-yl)methyl)-8-oxo-1,2,3,4,4a,5,8,10-octahydro-9H-pyrazino[1′,2′: 4,5][1,4]oxazino[2,3-f]isoindol-9-yl)piperidine-2,6-dione] | – | < 1 nM | – | > 75% | < 1 nM | A (“A”: >=75%) | – | – | –
8 | O=C1CC[C@H](N2Cc3c(ccc4c3OC[C@H]3CN(CC5CC6(CCN(c7ncc([C@@H]8c9ccc(O)cc9CC[C@@H]8c8ccccc8)cn7)CC6)C5)CCN43)C2=O)C(=O)N1 (single isomer, unassigned) [Compound A140] | – | 1 to 10 nM | – | – | < 1 nM | – | – | > 75% | > 75%
9 | O=C1CC[C@H](N2Cc3c(ccc4c3OC[C@H]3CN(CC5CC6(CCN(c7ccc([C@H]8c9ccc(O)cc9CC[C@H]8c8ccccc8)cc7F)CC6)C5)CCN43)C2=O)C(=O)N1 (single isomer, unassigned) [Compound A147] | – | 1 to 10 nM | – | – | < 1 nM | – | – | > 75% | > 75%
10 | COc1cc(N2CCC(CN3CCN4c5cc6c(cc5OC[C@@H]4C3)C(=O)N([C@H]3CCC(=O)NC3=O)C6)CC2)ccc1[C@H]1c2ccc(O)cc2CC[C@H]1c1ccccc1 (single isomer, unassigned) [Compound A21] | – | 1 to 10 nM | – | 50 to 75% | 10 to 100 nM | – | – | 50 to 75% | –
11 | COc1cc(N2CCC3(CC2)CC(CN2CCC(c4ccc(N[C@@H]5CCC(=O)NC5=O)cc4)CC2)C3)ccc1[C@@H]1c2ccc(O)cc2CC[C@@H]1c1ccccc1 (single isomer, unassigned) [Compound A110] | – | < 1 nM | – | – | < 1 nM | – | – | 50 to 75% | 50 to 75%
12 | COc1cc(N2CCC(CN3CCC(c4ccc(N[C@H]5CCC(=O)NC5=O)cc4)CC3)CC2)ccc1[C@@H]1c2ccc(O)cc2CC[C@@H]1c1ccccc1 (single isomer, unassigned) [Compound A86] | – | 10 to 100 nM | – | – | 1 to 10 nM | – | – | 25 to 50% | < 25%
13 | COc1cc(N2CCC3(CC2)CC(CN2CCC(c4ccc(N[C@H]5CCC(=O)NC5=O)cc4F)CC2)C3)ccc1[C@@H]1c2ccc(O)cc2CC[C@@H]1c1ccccc1 (single isomer, unassigned) [Compound A105] | – | 1 to 10 nM | – | – | < 1 nM | – | – | 50 to 75% | 50 to 75%
14 | COc1cc(N2CCC(CN3CCC4(CC3)COc3cc5c(cc34)CN([C@H]3CCC(=O)NC3=O)C5=O)CC2)c(F)cc1[C@@H]1c2ccc(O)cc2CC[C@@H]1c1ccccc1 [Compound A122, (S)-3-(1′-((1-(2-fluoro-4-((1S,2S)-6-hydroxy-2-phenyl-1,2,3,4-tetrahydronaphthalen-1-yl)-5-methoxyphenyl)piperidin-4-yl)methyl)-7-oxo-5,7-dihydro-2H,6H-spiro[furo[2,3-f]isoindole-3,4′-piperidin]-6-yl)piperidine-2,6-dione] | – | < 1 nM | 50 to 75% | 50 to 75% | < 1 nM | – | – | – | –
15 | COc1cc(N2CCC3(CC2)CC(CN2CCC(c4ccc(N[C@@H]5CCC(=O)NC5=O)cc4)CC2)C3)c(F)cc1[C@H]1c2ccc(O)cc2CC[C@H]1c1ccccc1 (single isomer, unassigned) [Compound A46] | – | 10 to 100 nM | – | – | 10 to 100 nM | – | – | 25 to 50% | 25 to 50%
16 | COc1cc(N2CCC(CN3CCC(c4ccc(N[C@@H]5CCC(=O)NC5=O)cc4F)CC3)CC2)ccc1[C@H]1c2ccc(O)cc2CC[C@H]1c1ccccc1 (stereo in doubt) [Compound A84, (R)-3-((3-fluoro-4-(1-((1-(4-((1R,2R)-6-hydroxy-2-phenyl-1,2,3,4-tetrahydronaphthalen-1-yl)-3-methoxyphenyl)piperidin-4-yl)methyl)piperidin-4-yl)-phenyl)amino)piperidine-2,6-dione formate] | – | 10 to 100 nM | – | – | < 1 nM | – | – | 25 to 50% | < 25%
17 | COc1cc(N2CCC(CN3CCC4(CC3)COc3cc5c(cc34)CN([C@H]3CCC(=O)NC3=O)C5=O)CC2)ccc1[C@H]1c2ccc(O)cc2CC[C@H]1c1ccccc1 [Compound A38, (R)-3-(1′-((1-(4-((1S,2S)-6-hydroxy-2-phenyl-1,2,3,4-tetrahydronaphthalen-1-yl)-3-methoxyphenyl)piperidin-4-yl)methyl)-7-oxo-5,7-dihydro-2H,6H-spiro[furo[2,3-f]iso-indole-3,4′-piperidin]-6-yl)-piperidine-2,6-dione formate] | – | 1 to 10 nM | 25 to 50% | 25 to 50% | 10 to 100 nM | – | – | – | –
18 | COc1cc(N2CCC(CN3CCC(c4ccc(N[C@@H]5CCC(=O)NC5=O)cc4)CC3)CC2)ccc1[C@@H]1c2ccc(O)cc2CC[C@@H]1c1ccccc1 (single isomer, unassigned) [Compound A87] | – | < 1 nM | – | – | < 1 nM | – | – | 25 to 50% | 25 to 50%
